# Test results reported in patent US10143695B2 (priority 2016, dated 2018).
# Key:
# [1] = Phase I clinical evaluation; cited from earlier work
# [2] = tested on: MCF7 cells (HER2 low expressing levels cells); test: CellTiter-Glo cell viability assay, MCF7; format: cell-based; conditions: Homo sapiens, MCF7; PBD compounds, 72 h incubation
# Protocol: (§1) PBD compounds and conjugates thereof were evaluated for their antiproliferation properties in tumor cell lines in vitro using CellTiter-Glo® (Promega Corp). Cells were plated in black walled 96-well plate and allowed to adhere overnight at 37° C. in a humidified atmosphere of 5% CO2. BT474, SKBR3, NCI-N87 cells (HER2 expressing cells), JIMT1 cells (HER2 medium expression level cells) and MCF7 cells (HER2 low expressing levels cells) and were plated at a density of 5,000 cells per well. The next day the medium was replaced with 50 μL fresh medium and 50 μL of 2× stocks of PBD compounds or antibody-PBD conjugate were added to appropriate wells, mixed and incubated for 72 h. CellTiter-Glo® reagent was added to the wells at room temperature and the luminescent signal was measured after 10 min using a SpectraMax M5 plate reader (Molecular Devices). Dose response curves were generated using SoftMax Pro software. IC50 values were determined from four-parameter curve fitting.
# [3] = tested on: JIMT1 cells (HER2 medium expression level cells); test: CellTiter-Glo cell viability assay, JIMT1; format: cell-based; conditions: Homo sapiens, JIMT-1; PBD compounds, 72 h incubation
# Protocol: as §1
# [4] = tested on: SKBR3 cells (HER2 expressing cells); test: CellTiter-Glo cell viability assay, SKBR3; format: cell-based; conditions: Homo sapiens, SK-BR-3; PBD compounds, 72 h incubation
# Protocol: as §1
# [5] = tested on: NCI-N87 cells (HER2 expressing cells); test: CellTiter-Glo cell viability assay, NCI-N87; format: cell-based; conditions: Homo sapiens, NCI-N87; PBD compounds, 72 h incubation
# Protocol: as §1
# [6] = tested on: BT474 cells (HER2 expressing cells); test: CellTiter-Glo cell viability assay, BT474; format: cell-based; conditions: Homo sapiens, BT-474; PBD compounds, 72 h incubation
# Protocol: as §1
structure (smiles),measurement,setting,value
C=C1C[C@H]2C=Nc3cc(OCCCOc4cc5c(cc4OC)C(=O)N4CC(=C)C[C@H]4C=N5)c(OC)cc3C(=O)N2C1 [SJG-136],adverse effects noted,[1],"vascular leak syndrome, peripheral edema, liver toxicity and fatigue"
same,maximum tolerated dose,[1],45 μg/m^2
"C=C1C[C@H]2C=Nc3cc(OCCCC(=O)Nc4cn(C)c(C(=O)Nc5cc(C(=O)Nc6cc(C(=O)O)n(C)c6)n(C)c5)n4)c(OC)cc3C(=O)N2C1 [Compound 51, (S,Z)-4-(4-(4-(4-(7-methoxy-2-methylene-5-oxo-2,3,5,11a-tetrahydro-1H-benzo[e]pyrrolo[1,2-a][1,4]diazepin-8-yloxy)butanamido)-1-methyl-1H-imidazole-2-carboxamido)-1-methyl-1H-pyrrole-2-carboxamido)-1-methyl-1H-pyrrole-2-carboxylic acid]",IC50,[2],300 nM
same,IC50,[3],300 nM
same,IC50,[4],260 nM
same,IC50,[5],300 nM
same,IC50,[6],300 nM
"C=C1C[C@H]2C=Nc3cc(OCCCC(=O)Nc4cn(C)c(C(=O)Nc5cc(C(=O)n6ccc7cc(N)ccc76)n(C)c5)n4)c(OC)cc3C(=O)N2C1 [Compound 12, (S,Z)-N-(5-(5-amino-1H-indole-1-carbonyl)-1-methyl-1H-pyrrol-3-yl)-4-(4-((7-methoxy-2-methylene-5-oxo-2,3,5,11a-tetrahydro-1H-benzo[e]pyrrolo[1,2-a][1,4]diazepin-8-yl)oxy)butanamido)-1-methyl-1H-imidazole-2-carboxamide]",IC50,[2],13.9 nM
same,IC50,[3],4.4 nM
same,IC50,[4],0.4 nM
same,IC50,[5],7 nM
same,IC50,[6],2 nM
"C=C1C[C@H]2C=Nc3cc(OCCCC(=O)Nc4cn(C)c(C(=O)Nc5cc(C(=O)Nc6cc(C(=O)N7Cc8ccc(N)cc8C7)n(C)c6)n(C)c5)n4)c(OC)cc3C(=O)N2C1 [Compound 6A, (S,Z)-N-(5-(5-(5-aminoisoindoline-2-carbonyl)-1-methyl-1H-pyrrol-3-ylcarbamoyl)-1-methyl-1H-pyrrol-3-yl)-4-(4-(7-methoxy-2-methylene-5-oxo-2,3,5,11a-tetrahydro-1H-benzo[e]pyrrolo[1,2-a][1,4]diazepin-8-yloxy)butanamido)-1-methyl-1H-imidazole-2-carboxamide]",IC50,[2],17.1 nM
same,IC50,[3],8.9 nM
same,IC50,[4],1.5 nM
same,IC50,[5],4.2 nM
same,IC50,[6],5.3 nM
"C=C1C[C@H]2C=Nc3cc(OCCCC(=O)Nc4cn(C)c(C(=O)Nc5cc(C(=O)Nc6cc(C(=O)NCc7ccc(N)cc7)n(C)c6)n(C)c5)n4)c(OC)cc3C(=O)N2C1 [Compound 4A, (S,Z)-N-(5-(5-(4-aminobenzylcarbamoyl)-1-methyl-1H-pyrrol-3-ylcarbamoyl)-1-methyl-1H-pyrrol-3-yl)-4-(4-(7-methoxy-2-methylene-5-oxo-2,3,5,11a-tetrahydro-1H-benzo[e]pyrrolo[1,2-a][1,4]diazepin-8-yloxy)butanamido)-1-methyl-1H-imidazole-2-carboxamide]",IC50,[2],1000 nM
same,IC50,[3],11.4 nM
same,IC50,[4],9.4 nM
same,IC50,[5],24.1 nM
same,IC50,[6],26.8 nM
"C=C1C[C@H]2C=Nc3cc(OCCCC(=O)Nc4cn(C)c(C(=O)Nc5cc(C(=O)Nc6cc(C(=O)n7ccc8cc(S(C)(=O)=O)ccc87)n(C)c6)n(C)c5)n4)c(OC)cc3C(=O)N2C1 [Compound 20, (S,Z)-4-(4-(7-methoxy-2-methylene-5-oxo-2,3,5,11a-tetrahydro-1H-benzo[e]pyrrolo[1,2-a][1,4]diazepin-8-yloxy)butanamido)-1-methyl-N-(1-methyl-5-(1-methyl-5-(5-(methylsulfonyl)-1H-indole-1-carbonyl)-1H-pyrrol-3-ylcarbamoyl)-1H-pyrrol-3-yl)-1H-imidazole-2-carboxamide]",IC50,[2],202 nM
same,IC50,[3],19.9 nM
same,IC50,[4],5.5 nM
same,IC50,[5],26 nM
same,IC50,[6],126 nM
"C=C1C[C@H]2C=Nc3cc(OCCCC(=O)Nc4cn(C)c(C(=O)Nc5cc(C(=O)Nc6cc(C(=O)n7ccc8ccc(N)cc87)n(C)c6)n(C)c5)n4)c(OC)cc3C(=O)N2C1 [Compound 13A, (S,Z)-N-(5-(5-(6-amino-1H-indole-1-carbonyl)-1-methyl-1H-pyrrol-3-ylcarbamoyl)-1-methyl-1H-pyrrol-3-yl)-4-(4-(7-methoxy-2-methylene-5-oxo-2,3,5,11a-tetrahydro-1H-benzo[e]pyrrolo[1,2-a][1,4]diazepin-8-yloxy)butanamido)-1-methyl-1H-imidazole-2-carboxamide]",IC50,[2],4.4 nM
same,IC50,[3],3.6 nM
same,IC50,[4],0.28 nM
same,IC50,[5],0.73 nM
same,IC50,[6],2.5 nM
"C=C1C[C@H]2C=Nc3cc(OCCCC(=O)Nc4cn(C)c(C(=O)Nc5cc(C(=O)Nc6cc(C(=O)n7ccc8cc(CN)ccc87)n(C)c6)n(C)c5)n4)c(OC)cc3C(=O)N2C1 [Compound 83, (S,Z)-N-(5-(5-(5-(aminomethyl)-1H-indole-1-carbonyl)-1-methyl-1H-pyrrol-3-ylcarbamoyl)-1-methyl-1H-pyrrol-3-yl)-4-(4-(7-methoxy-2-methylene-5-oxo-2,3,5,11a-tetrahydro-1H-benzo[e]pyrrolo[1,2-a][1,4]diazepin-8-yloxy)butanamido)-1-methyl-1H-imidazole-2-carboxamide]",IC50,[2],2.4 nM
same,IC50,[3],1.2 nM
same,IC50,[4],0.18 nM
same,IC50,[5],0.81 nM
same,IC50,[6],2.5 nM
"COc1cc2c(cc1OCCCC(=O)Nc1cn(C)c(C(=O)Nc3cc(C(=O)Nc4cc(C(=O)n5ccc6cc(N)ccc65)n(C)c4)n(C)c3)n1)N=C[C@@H]1Cc3ccccc3N1C2=O [Compound 78, (S)-N-(5-((5-(5-amino-1H-indole-1-carbonyl)-1-methyl-1H-pyrrol-3-yl)carbamoyl)-1-methyl-1H-pyrrol-3-yl)-4-(4-((8-methoxy-6-oxo-12a,13-dihydro-6H-benzo[5,6][1,4]diazepino[1,2-a]indol-9-yl)oxy)butanamido)-1-methyl-1H-imidazole-2-carboxamide]",IC50,[2],1.9 nM
same,IC50,[3],1.1 nM
same,IC50,[4],0.06 nM
same,IC50,[5],0.29 nM
same,IC50,[6],0.63 nM
"C=C1C[C@H]2C=Nc3cc(OCCCC(=O)Nc4cn(C)c(C(=O)Nc5cc(C(=O)Nc6cc(C(=O)n7ccc8cc(C(=O)OC)ccc87)n(C)c6)n(C)c5)n4)c(OC)cc3C(=O)N2C1 [Compound 8A, (S,Z)-methyl 1-(4-(4-(4-(4-(7-methoxy-2-methylene-5-oxo-2,3,5,11a-tetrahydro-1H-benzo[e]pyrrolo[1,2-a][1,4]diazepin-8-yloxy)butanamido)-1-methyl-1H-imidazole-2-carboxamido)-1-methyl-1H-pyrrole-2-carboxamido)-1-methyl-1H-pyrrole-2-carbonyl)-1H-indole-5-carboxylate]",IC50,[2],3.7 nM
same,IC50,[3],0.55 nM
same,IC50,[4],0.14 nM
same,IC50,[5],2.9 nM
same,IC50,[6],0.83 nM
"C=C1C[C@H]2C=Nc3cc(OCCCC(=O)Nc4cn(C)c(C(=O)Nc5cc(C(=O)Nc6cnc7[nH]ccc7c6)n(C)c5)n4)c(OC)cc3C(=O)N2C1 [Compound 84, (S,Z)-N-(5-(1H-pyrrolo[2,3-b]pyridin-5-ylcarbamoyl)-1-methyl-1H-pyrrol-3-yl)-4-(4-(7-methoxy-2-methylene-5-oxo-2,3,5,11a-tetrahydro-1H-benzo[e]pyrrolo[1,2-a][1,4]diazepin-8-yloxy)butanamido)-1-methyl-1H-imidazole-2-carboxamide]",IC50,[2],3.8 nM
same,IC50,[3],3.6 nM
same,IC50,[4],0.66 nM
same,IC50,[5],1.5 nM
same,IC50,[6],5.4 nM
"C=C1C[C@H]2C=Nc3cc(OCCCC(=O)Nc4cn(C)c(C(=O)Nc5cc(C(=O)Nc6cc(C(=O)n7ccc8cc(SC)ccc87)n(C)c6)n(C)c5)n4)c(OC)cc3C(=O)N2C1 [Compound 19, (S,Z)-4-(4-(7-methoxy-2-methylene-5-oxo-2,3,5,11a-tetrahydro-1H-benzo[e]pyrrolo[1,2-a][1,4]diazepin-8-yloxy)butanamido)-1-methyl-N-(1-methyl-5-(1-methyl-5-(5-(methylthio)-1H-indole-1-carbonyl)-1H-pyrrol-3-ylcarbamoyl)-1H-pyrrol-3-yl)-1H-imidazole-2-carboxamide]",IC50,[2],2.1 nM
same,IC50,[3],1.34 nM
same,IC50,[4],0.2 nM
same,IC50,[5],0.35 nM
same,IC50,[6],0.59 nM
